Earlier results as cited in patent US20070014819A1, “Method of emulsifying phytosterol by natural saponin,emulsion prepared thereby and water dispersible phytosterol powder product” (WECKTECK BIOTECHNOLOGY COMPANY LIMITED, priority 2005, published 2007).

Assays:
[1] = around the world
[2] = administered orally directly
[3] = purified

Compound	people dead from the side effects [1]	absorption rate in a human body [2]	reduction of total cholesterol in blood (cholesterol in blood; daily intake of 1.4 g for one month)	reduction of the concentration of LDL (cholesterol in blood; daily intake of more than 1.3 g, FDA article)	solubility in water or oil and most solvents [3]
COCc1c(C(C)C)nc(C(C)C)c(/C=C/[C@@H](O)C[C@@H](O)CC(=O)O)c1-c1ccc(F)cc1 [Baycol, cerivastatin]	more than 100 people				
CC(C)CCC[C@@H](C)[C@H]1CC[C@H]2[C@@H]3CC=C4C[C@@H](O)CC[C@]4(C)[C@H]3CC[C@]12C [cholesterol, reference compound]		more than 50%			
β-sitosterol [phytosterol]		less than 5%	about 14%	effectively reduce	difficult to be dissolved
